Assay results taken from PubChem BioAssay (NCI).
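In this assay, cells in 96-well plates receive the compound at five concentrations for 48 hours. Endpoints are linearly interpolated between the surrounding concentrations. GI50 marks 50% less growth. TGI denotes the concentration required for complete inhibition of growth.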

Key:
Assay in all cases: NCI tumour cell line growth inhibition, 48 h
786-0 renal = system: 786-0 renal
A498 renal = system: A498 renal
A549 NSCLC = system: A549 NSCLC
ACHN renal = system: ACHN renal
BT-549 breast = system: BT-549 breast
CAKI-1 renal = system: CAKI-1 renal
CCRF-CEM leukemia = system: CCRF-CEM leukemia
COLO 205 colon = system: COLO 205 colon
DU-145 prostate = system: DU-145 prostate
EKVX NSCLC = system: EKVX NSCLC
HCT-116 colon = system: HCT-116 colon
HCT-15 colon = system: HCT-15 colon
HL-60(TB) leukemia = system: HL-60(TB) leukemia
HOP-92 NSCLC = system: HOP-92 NSCLC
HS 578T breast = system: HS 578T breast
HT29 colon = system: HT29 colon
IGROV1 ovarian = system: IGROV1 ovarian
K-562 leukemia = system: K-562 leukemia
KM12 colon = system: KM12 colon
LOX IMVI melanoma = system: LOX IMVI melanoma
M14 melanoma = system: M14 melanoma
MALME-3M melanoma = system: MALME-3M melanoma
MCF7 breast = system: MCF7 breast
MDA-MB-231 breast = system: MDA-MB-231 breast
MDA-MB-435 = system: MDA-MB-435
MOLT-4 leukemia = system: MOLT-4 leukemia
NCI-H226 lung = system: NCI-H226 lung
NCI-H23 lung = system: NCI-H23 lung
NCI-H460 lung = system: NCI-H460 lung
NCI-H522 lung = system: NCI-H522 lung
NCI/ADR-RES ovarian = system: NCI/ADR-RES ovarian
OVCAR-3 ovarian = system: OVCAR-3 ovarian
OVCAR-4 ovarian = system: OVCAR-4 ovarian
OVCAR-5 ovarian = system: OVCAR-5 ovarian
OVCAR-8 ovarian = system: OVCAR-8 ovarian
PC-3 prostate = system: PC-3 prostate
RXF 393 renal = system: RXF 393 renal
SF-268 CNS = system: SF-268 CNS
SF-295 CNS = system: SF-295 CNS
SF-539 CNS = system: SF-539 CNS
SK-MEL-2 melanoma = system: SK-MEL-2 melanoma
SK-MEL-28 melanoma = system: SK-MEL-28 melanoma
SK-MEL-5 melanoma = system: SK-MEL-5 melanoma
SK-OV-3 ovarian = system: SK-OV-3 ovarian
SN12C renal = system: SN12C renal
SNB-19 CNS = system: SNB-19 CNS
SNB-75 CNS = system: SNB-75 CNS
SR leukemia = system: SR leukemia
SW-620 colon = system: SW-620 colon
T-47D breast = system: T-47D breast
TK-10 renal = system: TK-10 renal
U251 CNS = system: U251 CNS
UACC-257 melanoma = system: UACC-257 melanoma
UACC-62 melanoma = system: UACC-62 melanoma
UO-31 renal = system: UO-31 renal

With `O=C1C[C@@H]2/C(=C(O)\C=C\c3ccccc3)C(=O)C=C[C@@H]2O1` the GI50 (786-0 renal) was 1740 nM, the TGI (786-0 renal) was 3490 nM and the GI50 (A498 renal) was 10900 nM. The TGI (A498 renal) was 23100 nM, the GI50 (A549 NSCLC) was 3510 nM and the TGI (A549 NSCLC) was 12800 nM. It also gave a GI50 (ACHN renal) of 1560 nM, a TGI (ACHN renal) of 3290 nM and a GI50 (BT-549 breast) of 2840 nM. It also gave a TGI (BT-549 breast) of 8450 nM, a GI50 (CAKI-1 renal) of 2350 nM and a TGI (CAKI-1 renal) of 11800 nM. For the same molecule, the GI50 (CCRF-CEM leukemia) was 447 nM, the TGI (CCRF-CEM leukemia) was 2890 nM and the GI50 (COLO 205 colon) was 992 nM. It also gave a TGI (COLO 205 colon) of 2620 nM, a GI50 (DU-145 prostate) of 515 nM and a TGI (DU-145 prostate) of 1930 nM. The GI50 (EKVX NSCLC) was 13000 nM, the TGI (EKVX NSCLC) was 26000 nM and the GI50 (HCT-116 colon) was 382 nM. It also gave a TGI (HCT-116 colon) of 1600 nM, a GI50 (HCT-15 colon) of 1300 nM and a TGI (HCT-15 colon) of 3690 nM. The GI50 (HL-60(TB) leukemia) was 1570 nM, the TGI (HL-60(TB) leukemia) was 5930 nM and the GI50 (HOP-92 NSCLC) was 1590 nM. It also gave a TGI (HOP-92 NSCLC) of 3210 nM, a GI50 (HS 578T breast) of 5270 nM and a TGI (HS 578T breast) of 60500 nM. It also gave a GI50 (HT29 colon) of 844 nM, a TGI (HT29 colon) of 2400 nM and a GI50 (IGROV1 ovarian) of 385 nM. The TGI (IGROV1 ovarian) was 1560 nM, the GI50 (K-562 leukemia) was 449 nM and the TGI (K-562 leukemia) was over 100000 nM. It also gave a GI50 (KM12 colon) of 505 nM, a TGI (KM12 colon) of 1820 nM and a GI50 (LOX IMVI melanoma) of 214 nM. The TGI (LOX IMVI melanoma) was 485 nM, the GI50 (M14 melanoma) was 435 nM and the TGI (M14 melanoma) was 2630 nM. For the same molecule, the GI50 (MALME-3M melanoma) was 1420 nM, the TGI (MALME-3M melanoma) was 3000 nM and the GI50 (MCF7 breast) was 830 nM. For the same molecule, the TGI (MCF7 breast) was 13500 nM, the GI50 (MDA-MB-231 breast) was 2130 nM and the TGI (MDA-MB-231 breast) was 4210 nM. It also gave a GI50 (MDA-MB-435) of 1610 nM, a TGI (MDA-MB-435) of 3490 nM and a GI50 (MOLT-4 leukemia) of 1850 nM. The TGI (MOLT-4 leukemia) was 5770 nM, the GI50 (NCI-H226 lung) was 1940 nM and the TGI (NCI-H226 lung) was 4450 nM. For the same molecule, the GI50 (NCI-H23 lung) was 1780 nM, the TGI (NCI-H23 lung) was 3950 nM and the GI50 (NCI-H460 lung) was 2230 nM. It also gave a TGI (NCI-H460 lung) of 7180 nM, a GI50 (NCI-H522 lung) of 206 nM and a TGI (NCI-H522 lung) of 615 nM. It also gave a GI50 (NCI/ADR-RES ovarian) of 690 nM, a TGI (NCI/ADR-RES ovarian) of 3400 nM and a GI50 (OVCAR-3 ovarian) of 497 nM. It also gave a TGI (OVCAR-3 ovarian) of 1820 nM, a GI50 (OVCAR-4 ovarian) of 3640 nM and a TGI (OVCAR-4 ovarian) of 13000 nM. The GI50 (OVCAR-5 ovarian) was 1930 nM, the TGI (OVCAR-5 ovarian) was 3840 nM and the GI50 (OVCAR-8 ovarian) was 3060 nM. It also gave a TGI (OVCAR-8 ovarian) of 12300 nM, a GI50 (PC-3 prostate) of 1950 nM and a TGI (PC-3 prostate) of 4900 nM. It also gave a GI50 (RXF 393 renal) of 1470 nM, a TGI (RXF 393 renal) of 2830 nM and a GI50 (SF-268 CNS) of 2090 nM. For the same molecule, the TGI (SF-268 CNS) was 6140 nM, the GI50 (SF-295 CNS) was 3440 nM and the TGI (SF-295 CNS) was 13700 nM. For the same molecule, the GI50 (SF-539 CNS) was 2300 nM, the TGI (SF-539 CNS) was 8350 nM and the GI50 (SK-MEL-2 melanoma) was 1770 nM. It also gave a TGI (SK-MEL-2 melanoma) of 3560 nM, a GI50 (SK-MEL-28 melanoma) of 2330 nM and a TGI (SK-MEL-28 melanoma) of 6560 nM. It also gave a GI50 (SK-MEL-5 melanoma) of 2010 nM, a TGI (SK-MEL-5 melanoma) of 4820 nM and a GI50 (SK-OV-3 ovarian) of 4860 nM. The TGI (SK-OV-3 ovarian) was 16900 nM, the GI50 (SN12C renal) was 2150 nM and the TGI (SN12C renal) was 5640 nM. The GI50 (SNB-19 CNS) was 9030 nM, the TGI (SNB-19 CNS) was 22600 nM and the GI50 (SNB-75 CNS) was 2070 nM. For the same molecule, the TGI (SNB-75 CNS) was 5780 nM, the GI50 (SR leukemia) was 464 nM and the TGI (SR leukemia) was 17000 nM. For the same molecule, the GI50 (SW-620 colon) was 485 nM, the TGI (SW-620 colon) was 4940 nM and the GI50 (T-47D breast) was 905 nM. The TGI (T-47D breast) was 4550 nM, the GI50 (TK-10 renal) was 2630 nM and the TGI (TK-10 renal) was 7590 nM. For the same molecule, the GI50 (U251 CNS) was 1560 nM, the TGI (U251 CNS) was 3410 nM and the GI50 (UACC-257 melanoma) was 1830 nM. For the same molecule, the TGI (UACC-257 melanoma) was 3900 nM, the GI50 (UACC-62 melanoma) was 3000 nM and the TGI (UACC-62 melanoma) was 12200 nM. The GI50 (UO-31 renal) was 878 nM and the TGI (UO-31 renal) was 2200 nM.
